Assay results taken from US20090042726A1, “Novel Herbicides” (SYNGENTA LIMITED, priority 2005, published 2009).

Assays:
[1] = system: Monocotyledonous and dicotyledonous test plants; assay: Herbicidal action, application pre-emergence (Example B1); assay type: in vivo; parameters: key: 10=total damage to plant; 0=no damage to plant; conditions: 1000 g/ha, evaluated after 9 or 13 days; for AGSTE herbicidal action (damage score 0-10): Agrostis-tenius; for AMARE herbicidal action (damage score 0-10): Amaranthus retroflexus; for DIGSA herbicidal action (damage score 0-10): Digitaria sanguinalis; for POATR herbicidal action (damage score 0-10): Poa trivialis; for SETIT herbicidal action (damage score 0-10): Setaria italica
Method in brief: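 Seeds sown in sterilised standard soil were sprayed one day after sowing (pre-emergence) with 1000 mg/l active ingredient in aqueous solution containing 10% DMSO. Plants were kept in a climatic chamber at 24/19° C. day/night after application. Damage was scored 0 (none) to 10 (total) after 9 or 13 days.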

| melting point | SMILES | AGSTE herbicidal action (damage score 0-10) [1] | AMARE herbicidal action (damage score 0-10) [1] | DIGSA herbicidal action (damage score 0-10) [1] | POATR herbicidal action (damage score 0-10) [1] | SETIT herbicidal action (damage score 0-10) [1] |
| --- | --- | --- | --- | --- | --- | --- |
| 140 to 141 °C | Cc1nc(C(Cl)S(=O)(=O)C2=NOC(C)(C)C2F)n(C)n1 (racemic) [8.05, 3-[chloro-(1,3-dimethyl-1H-[1,2,4]triazol-5-yl)-methane-sulfonyl]-4-fluoro-5,5-dimethyl-4,5-dihydro-isoxazole] | 10 | 10 | 9 | 8 | – |
| 182 to 184 °C | Cc1nc(CS(=O)(=O)C2=NOC(C)(C)C2F)n(C)n1 (stereo not shown) [8.04, 3-[(1,3-dimethyl-1H-[1,2,4]-triazol-5-yl)-methanesulfonyl]-4-fluoro-5,5-dimethyl-4,5-dihydro-isoxazole] | – | – | – | – | – |
| 115 to 116 °C | CC1(C)ON=C(S(=O)(=O)C(F)(F)c2c(F)cccc2F)C1F (stereo not shown) [Compound No. 1.18, 3-[(2,6-difluoro-phenyl)-difluoro-methanesulfonyl]-4-fluoro-5,5-dimethyl-4,5-dihydro-isoxazole] | 10 | 10 | 10 | 8 | 9 |
| 50 to 51 °C | Cn1nc(C(F)(F)F)c(CSC2=NOC(C)(C)C2F)c1OCC(F)(F)F (stereo not shown) [Compound No. 2.07, 4-fluoro-5,5-dimethyl-3-[1-methyl-5-(2,2,2-trifluoro-ethoxy)-3-trifluoromethyl-1H-pyrazol-4-ylmethylsulfanyl]-4,5-dihydro-isoxazole] | – | – | – | – | – |
| 111 to 112 °C | Cn1nc(C(F)(F)F)c(CS(=O)(=O)C2=NOC(C)(C)C2Cl)c1OCC(F)(F)F (stereo not shown) [Compound No. 2.15, 4-chloro-5,5-dimethyl-3-[1-methyl-5-(2,2,2-trifluoro-ethoxy)-3-trifluoromethyl-1H-pyrazol-4-ylmethylsulfonyl]-4,5-dihydro-isoxazole] | 10 | 8 | 8 | 10 | 6 |

The next lines start with the compound.

| SMILES | melting point | AGSTE herbicidal action (damage score 0-10) [1] | AMARE herbicidal action (damage score 0-10) [1] | DIGSA herbicidal action (damage score 0-10) [1] | POATR herbicidal action (damage score 0-10) [1] | SETIT herbicidal action (damage score 0-10) [1] |
| --- | --- | --- | --- | --- | --- | --- |
| Cc1nn(C)nc1CSC1=NOC(C)(C)C1F (stereo not shown) [Compound No. 7.01] | – | 10 | 0 | 8 | 0 | 8 |
| CC1(C)ON=C(SCc2nn(CC3CCC3)nc2C(F)(F)F)C1F (stereo not shown) [Compound No. 7.15] | – | 8 | 9 | 9 | 0 | – |
| COCCn1nc(CSC2=NOC(C)(C)C2F)c(C(F)(F)F)n1 (stereo not shown) [Compound No. 7.18] | – | 7 | 8 | 8 | 0 | – |
| CCc1nn(C)nc1CSC1=NOC(C)(C)C1F (stereo not shown) [Compound No. 7.31] | – | 9 | 0 | 7 | 0 | – |
| CCn1ncc(CSC2=NOC(C)(C)C2F)n1 (stereo not shown) [Compound No. 7.34] | – | 9 | 6 | 8 | 8 | – |
